Test results taken from patent publication US20080255206A1, “Rxr Agonists and Antagonists, Alone or in Combination with Ppar Ligands, in the Treatment of Metabolic and Cardiovascular Diseases” (priority 2005, published 2008).

Key:
[1] = biological target: T1, RARβ (Homo sapiens, UniProt P10826); assay: Retinoid activation assay, RARβ (COS-1 cells, SeAP reporter); format: cell-based; conditions: read-out: Activation EC50 RAR β
T1 sequence (P10826 183-417 limits assumed): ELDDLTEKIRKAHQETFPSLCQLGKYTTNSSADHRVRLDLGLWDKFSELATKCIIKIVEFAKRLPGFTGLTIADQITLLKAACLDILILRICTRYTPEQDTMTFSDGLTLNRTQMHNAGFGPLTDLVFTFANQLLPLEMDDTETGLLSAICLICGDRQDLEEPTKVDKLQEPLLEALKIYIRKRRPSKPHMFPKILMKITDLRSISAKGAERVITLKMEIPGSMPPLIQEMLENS
Procedure: Chimeric RAR cDNAs are used for transfection which contain the DNA binding region of the estrogen receptor. As reporter system, the SeAp (secreted alkaline phosphatase) gene under control of the vitellogenin estrogen response element fused to the herpes simplex thymidinkinase promoter (vit-TK-SeAP) is used. The galactosidase expression vector pCH110 serves to correct for variation in transfection efficiency. […] At the end of the incubation, the cell supernatants are assayed for SeAP activity. Results are given as EC50 (nM), the concentration leading to half-maximal activation.

[2] = biological target: T2, RXRα Homodimer (Homo sapiens, UniProt P19793); assay: RXRα homodimer activation (transactivation) assay; format: cell-based
T2 construct: expressed in transfected cells; host or cells: mammalian cells (BHK21, CV1, etc)
T2 sequence (P19793 1-462): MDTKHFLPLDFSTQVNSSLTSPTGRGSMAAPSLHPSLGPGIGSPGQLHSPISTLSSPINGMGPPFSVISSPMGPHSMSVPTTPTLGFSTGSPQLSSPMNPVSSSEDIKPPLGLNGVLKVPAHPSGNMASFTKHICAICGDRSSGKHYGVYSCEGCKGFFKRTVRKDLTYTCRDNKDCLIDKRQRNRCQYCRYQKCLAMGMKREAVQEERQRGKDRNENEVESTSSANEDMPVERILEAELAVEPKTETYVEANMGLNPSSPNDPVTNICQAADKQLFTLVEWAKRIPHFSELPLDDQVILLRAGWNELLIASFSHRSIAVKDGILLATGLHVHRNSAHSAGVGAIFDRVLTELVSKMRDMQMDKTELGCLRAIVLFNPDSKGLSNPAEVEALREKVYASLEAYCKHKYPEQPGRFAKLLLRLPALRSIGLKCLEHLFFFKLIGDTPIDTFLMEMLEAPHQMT
Text: Nuclear hormone receptor (NHR) ligand dependent transcriptional transactivation assay.
This secondary in vitro functional assay to characterize hits from the primary ligand binding screens is a GAL4-LBD transactivation assay. The Gal4-LBD protein consists of an in frame fusion of the transcription factor galactose 4 DNA binding domain from S.cerevisiae with the ligand binding domain (LBD) of a particular NHR. Briefly, a plasmid construct expressing the recombinant chimeric receptor is co-transfected into mammalian cells (BHK21, CV1, etc) with a luciferase reporter plasmid containing several copies in tandem of the GAL4 binding sites (promoter recognition elements) upstream from the minimal promoter driving the luciferase gene. The transfected cells are treated with compounds for 12-24 hours, lysates are produced and assayed for luciferase activity and normalized to internal standards such as GH, growth hormone or SEAP, secreted alkaline phosphatase. Ligand binding stabilizes the LBD conformation that recruits endogenous co-factors that mediate eventually the increased transcriptional activity of the luciferase reporter gene. By comparing the activation profile of a reference ligand or a natural ligand, the EC50 values for agonistic activity of a particular ligand can be measured. The extent of activation that can be measured is indicative of a partial, respectively full agonistic activity of a ligand. […]

[3] = biological target: T3, RXRα (Homo sapiens, UniProt P19793); assay: Retinoid binding assay, RXRα; parameters: made in house; host or cells: E. coli; conditions: [3H] 9-cis retinoic acid 20 nM; read-out: Binding Affinity IC50 RXR α
T3 sequence (P19793 1-462): T2 sequence (P19793 1-462)
Text: (§1) The DEF domains of RAR's and the full length RXR's, expressed in E.coli, are used to measure competitive retinoid binding. […] 9-cis retinoic acid (for RXR's), respectively. […] Separation of bound from free radioactivity is achieved by charcoal/dextran (RAR's) or by desalting columns (RXR's). […] Retinoid Activation Assays

[4] = biological target: T1, RARβ; assay: Retinoid binding assay, RARβ; parameters: The DEF domains of RAR's and the full length RXR's, expressed in E.coli; made in house; host or cells: E. coli; conditions: read-out: Binding Affinity IC50 RAR β
Text: as §1

[5] = biological target: T4, RXRβ (Homo sapiens, UniProt P28702); assay: Retinoid activation assay, RXRβ (Schneider SL-3 cells, luciferase reporter); format: cell-based; conditions: read-out: Activation EC50 RXR β
T4 construct: Full length RXR cDNA is used for transfection; expressed in transfected cells; host or cells: Schneider SL-3 cells (Drosophila)
T4 sequence (P28702 1-533): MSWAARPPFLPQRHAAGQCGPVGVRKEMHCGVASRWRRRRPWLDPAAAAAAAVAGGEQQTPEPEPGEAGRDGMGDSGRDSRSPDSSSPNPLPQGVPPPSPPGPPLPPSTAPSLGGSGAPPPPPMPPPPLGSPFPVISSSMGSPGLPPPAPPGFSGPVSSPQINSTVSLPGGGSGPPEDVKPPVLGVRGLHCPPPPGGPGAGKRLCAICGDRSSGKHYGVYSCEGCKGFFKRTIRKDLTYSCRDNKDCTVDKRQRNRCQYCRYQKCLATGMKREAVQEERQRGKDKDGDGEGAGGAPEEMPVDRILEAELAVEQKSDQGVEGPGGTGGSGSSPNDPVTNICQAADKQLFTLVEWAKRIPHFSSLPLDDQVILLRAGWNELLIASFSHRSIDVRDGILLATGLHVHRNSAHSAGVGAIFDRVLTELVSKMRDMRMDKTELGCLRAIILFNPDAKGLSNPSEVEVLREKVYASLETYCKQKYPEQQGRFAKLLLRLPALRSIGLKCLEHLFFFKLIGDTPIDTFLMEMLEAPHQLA
Procedure: Full length RXR cDNA is used for transfection. As reporter system, the luciferase gene is used in a construct with three copies of a RXR response element from rat CRBP gene, (formerly RARE from betaRAR gene), fused to alcoholdehydrogenase gene promoter in the plasmid pGL2-basic. Schneider SL-3 cells from Drosophila are transiently transfected 3-4 h before the experiment by the Ca-phosphate-DNA coprecipitation method. […] At the end of the incubation, the cell supernatants are assayed for luciferase activity. Results are given as EC50 (nM), the concentration leading to half-maximal activation.

| SMILES | EC50 [1] [nM] | EC50 [2] [nM] | IC50 [3] [nM] | IC50 [4] [µM] | EC50 [5] [nM] |
| --- | --- | --- | --- | --- | --- |
| CC(/C=C/[C@@H]1C[C@@H]1c1ccc2c(c1)C(C)(C)CCC2(C)C)=C\C(=O)O (racemic) [Compound 4, (2E,4E)-3-methyl-5-[(1RS,2RS)-2-(5,5,8,8-tetramethyl-5,6,7,8-tetrahydro-naphthalen-2-yl)-cyclopropyl]-penta-2,4-dienoic acid] | 1200 | 3.5 | 84 | > 10 |  |
| CCCCOc1c([C@@H]2C[C@@H]2/C=C/C(C)=C/C(=O)O)cc(C(C)(C)C)cc1C(C)(C)C (racemic) [Compound 16, (2E,4E)-(1RS,2RS)-5-[2-(3,5-Di-tert-butyl-2-butoxy-phenyl)-cyclopropyl]-3-methyl-penta-2,4-dienoic acid] |  | > 10000 | 65 | > 10 |  |
| CC1=C(/C=C/C2=C(/C=C/C(C)=C/C(=O)O)CCCCC2)C(C)(C)CCC1 [Compound 1, (2E,4E)-3-methyl-5-[2-[(E)-2-(2,6,6-trimethyl-1-cyclohexen-1-yl)ethenyl]-1-cyclohepten-1-yl]-2,4-pentadienoic acid] |  | 1.4 | 110 | > 10 |  |
| CC1=C(/C=C/c2sccc2/C=C/C(C)=C/C(=O)O)C(C)(C)CCC1 [Compound 5, (2E,4E)-3-Methyl-5-[2-[(E)-2-(2,6,6-trimethyl-1-cyclohexen-1-yl)ethenyl]-3-thienyl]-2,4-pentadienoic acid] | 85 | 0.8 | 150 | 1 | 50 |
| CC(/C=C/C1=C(c2ccc3c(c2)C(C)(C)CCC3(C)C)CCCC1)=C\C(=O)O [Compound 6, (2E,4E)-3-Methyl-5-[2-(5,5,8,8-tetramethyl-5,6,7,8-tetrahydro-naphthalen-2-yl)-cyclohex-1-enyl]-penta-2,4-dienoic acid] |  | 19 | 330 | > 10 | 1850 |
| CC(/C=C/c1ccccc1-c1ccc2c(c1)C(C)(C)CCC2(C)C)=C\C(=O)O [Compound 7, (2E,4E)-3-methyl-5-[2-(5,5,8,8-tetramethyl-5,6,7,8-tetrahydro-naphthalen-2-yl)-phenyl]-penta-2,4-dienoic acid] |  | 6 | 780 | > 10 | 330 |
| CC(/C=C/c1sccc1-c1ccc2c(c1)C(C)(C)CCC2(C)C)=C\C(=O)O [Compound 9] | 360 | 2.5 | 230 | 3.8 |  |
| CC(/C=C/C1=C(c2ccc3c(c2)C(C)(C)CCC3(C)C)CCC1)=C\C(=O)O [Compound 12, (2E,4E)-3-Methyl-5-[2-(5,5,8,8-tetramethyl-5,6,7,8-tetrahydro-naphthalen-2-yl)-cyclopent-1-enyl]-penta-2,4-dienoic acid] | 84 | 9 | 80 | 2.5 | 60 |
| C/C(=C/C=C/C(C)=C/C(=O)O)c1cc2c(cc1C)C(C)(C)CCCC2 [Compound 13, (2E,4E,6Z)-3-Methyl-7-(3,5,5,-trimethyl-6,7,8,9-tetrahydro-5H-benzocyclohepten-2-yl)-octa-2,4,6-trienoic acid] |  | 1.5 | 184 |  | 77 |
| CCCCOc1c(\C(C)=C/C=C/C(C)=C/C(=O)O)cc(C(C)(C)C)cc1C(C)(C)C [Compound 15, (2E,4E,6Z)-7-[2-butoxy-3,5-bis(1,1-dimethylethyl)phenyl]-3-methyl-2,4,6-octatrienoic acid] |  | > 10000 | 30 | > 10 |  |

Second part, the compound after the results:

| EC50 [1] [nM] | EC50 [2] [nM] | IC50 [3] [nM] | IC50 [4] [µM] | EC50 [5] [nM] | SMILES |
| --- | --- | --- | --- | --- | --- |
|  | > 10000 | 49 | > 10 |  | CCOc1c([C@@H]2C[C@@H]2/C=C/C(C)=C/C(=O)O)cc(C(C)(C)C)cc1C(C)(C)C (racemic) [Compound 17, (2E,4E)-(1RS,2RS)-5-[2-(3,5-Di-tert-butyl-2-ethoxy-phenyl)-cyclopropyl]-3-methyl-penta-2,4-dienoic acid] |
| 90 | 6 | 110 |  | 270 | CC1=C(/C=C/C2=C(/C=C/C(C)=C/C(=O)O)CCC2)C(C)(C)CCC1 [Compound 14, (2E,4E)-3-Methyl-5-[2-[(E)-2-(2,6,6-trimethyl-1-cyclohexen-1-yl)ethenyl]-1-cyclopenten-1-yl]-2,4-pentadienoic acid] |
|  | > 10000 | 95 | > 10 | ≥ 10000 | CC1=C(C#CC2=C(/C=C/C(C)=C/C(=O)O)CCCCC2)C(C)(C)CCC1 [Compound 18] |
|  | > 10000 | 24 | > 10 |  | CCOc1c(\C(C)=C/C=C/C(C)=C/C(=O)O)cc(C(C)(C)C)cc1C(C)(C)C [Compound 21, (2E,4E,6Z)-7-[3,5-Bis(1,1-dimethylethyl)-2-ethoxyphenyl]-3-methyl-2,4,6-octatrienoic acid/ethyl ester] |
| 9.9 | > 10000 | 680 | 0.02 | ≥ 10000 | CCC1(CC)CCC(C)(C)c2cc(\C(C)=C/C=C/C(C)=C/C(=O)O)ccc21 [Compound 24, (2E,4E,6Z)-7-(5,5-Diethyl-8,8-dimethyl-5,6,7,8-tetrahydro-naphthalen-2-yl)-3-methyl-octa-2,4,6-trienoic acid] |
